Active and inactive are the calls of the source. No cut-off for these calls is given here.
Assays:
Type in all cases: cell-based
[1] = biological target: Sodium-dependent serotonin transporter (Homo sapiens) (UniProt P31645); assay: Modulation of human SERT expressed in HEK293 cells at 0.1 uM using APP+ as substrate by fluorescence assay relative to control
[2] = biological target: Sodium-dependent serotonin transporter (Homo sapiens) (UniProt P31645); assay: Modulation of human SERT expressed in HEK293 cells at 10 uM using APP+ as substrate by fluorescence assay relative to control
[3] = biological target: Sodium-dependent serotonin transporter (Homo sapiens) (UniProt P31645); assay: Modulation of human SERT expressed in HEK293 cells at 1 uM using APP+ as substrate by fluorescence assay relative to control

Sequence of Sodium-dependent serotonin transporter (Homo sapiens) (P31645 whole entry, looked up): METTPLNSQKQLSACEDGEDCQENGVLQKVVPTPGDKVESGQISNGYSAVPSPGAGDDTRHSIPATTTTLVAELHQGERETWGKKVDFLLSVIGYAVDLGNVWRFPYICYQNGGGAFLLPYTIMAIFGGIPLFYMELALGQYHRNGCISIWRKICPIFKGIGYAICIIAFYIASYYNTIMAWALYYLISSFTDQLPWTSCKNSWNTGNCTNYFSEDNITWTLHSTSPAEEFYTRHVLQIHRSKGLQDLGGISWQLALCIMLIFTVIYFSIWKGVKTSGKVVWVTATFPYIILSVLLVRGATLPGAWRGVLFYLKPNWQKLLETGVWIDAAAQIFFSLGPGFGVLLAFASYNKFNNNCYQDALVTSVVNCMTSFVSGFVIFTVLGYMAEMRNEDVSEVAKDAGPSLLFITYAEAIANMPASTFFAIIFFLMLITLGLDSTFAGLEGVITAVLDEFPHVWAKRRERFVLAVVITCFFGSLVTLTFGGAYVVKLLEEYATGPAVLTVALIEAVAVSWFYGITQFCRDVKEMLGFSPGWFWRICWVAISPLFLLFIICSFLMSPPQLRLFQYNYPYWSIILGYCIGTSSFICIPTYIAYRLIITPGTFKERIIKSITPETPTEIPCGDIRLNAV

| SMILES | Activity [1] | Activity [2] | Activity [3] | fold change (FC) [1] | fold change (FC) [2] | fold change (FC) [3] |
| --- | --- | --- | --- | --- | --- | --- |
| CC(=O)OC[C@H]1O[C@@H](OCC2=CO[C@@H](OC(=O)CC(C)C)C3C2C[C@H](O)[C@H]3CO)[C@H](O)[C@H](O)[C@@H]1O (stereo not given in full) | inactive | inactive | inactive |  |  |  |
| C/C1=C\CC[C@@H](C)CCO[C@@H]2O[C@H](CO[C@@H]3OC[C@](O)(COC1=O)[C@H]3O)[C@@H](O)[C@H](O)[C@H]2O |  |  |  | 1.04 | 1.06 | 1.08 |
| CN1c2ccccc2C(NCCCCCCC(=O)O)c2ccc(Cl)cc2S1(=O)=O (stereo not given) |  |  |  |  |  | 1.18 |
| CC(C)CC(=O)O[C@@H]1OC=C(CO[C@@H]2O[C@H](CO)[C@@H](O)[C@H](O)[C@H]2O)C2C[C@H](O)[C@@H](CO)C21 (stereo not given in full) |  |  |  | 0.975 | 0.933 | 0.981 |
| COC(=O)C1=CO[C@@H](O[C@@H]2O[C@H](CO)[C@@H](O)[C@H](O)[C@H]2O)[C@H]2[C@@H](CO)CC[C@H]12 | inactive | inactive | inactive |  |  |  |
| CC(=O)/C=C/C1=C(C)CCCC1(C)C |  |  |  | 0.989 | 1.01 | 1.07 |
| CC(=O)/C=C/C1(O)C(C)(C)CCCC1(C)O (stereo not given) |  |  |  | 0.934 | 1.09 | 1.07 |
| C[C@H]1CC[C@@H]2C(C(=O)O)=CO[C@@H](O[C@@H]3O[C@H](CO)[C@@H](O)[C@H](O)[C@H]3O)[C@H]21 |  |  |  | 1.05 | 1.07 | 1.08 |
| CC1=CC(=O)CC(C)(C)[C@@H]1CC[C@@H](C)OC(=O)CC(C)C |  |  |  | 1.03 | 1.07 | 1.05 |
| COC1=CC(C)(C)c2cc(OC)c(C)cc2C1=O |  |  |  | 0.956 | 0.942 | 1 |
| COC1=CC(C)(C)c2cc(OC)c(C)c(OC)c2C1=O |  |  |  | 1.07 | 1.05 | 1.05 |
| CC(=O)CC/C=C(C)/C=C/[C@H]1C(C)=CC(=O)CC1(C)C |  |  |  | 1.06 | 1.1 | 1.07 |
| CC(C)CC(=O)OCC1=CO[C@@H](OC(=O)CC(C)C)C2C1CC(=O)[C@H]2C (stereo not given in full) | inactive | inactive | inactive |  |  |  |
| COC(=O)C1=CO[C@@H](O[C@@H]2O[C@H](CO)[C@@H](O)[C@H](O)[C@H]2O)[C@H]2[C@@H](COC(C)=O)CC[C@H]12 |  |  |  | 0.965 | 0.989 | 1.07 |
